Assay results as given in PubChem BioAssay (NCI).
Several values for one entry are separate records, joined by “and”; a condition that tells them apart may be missing. Equal values may be shown once.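 Assay format: 96-well plates, 48-hour exposure. At the GI50, growth is halved. At the TGI there is no net growth.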

Tested on: SK-MEL-28 melanoma
Assay: NCI anticancer screen, dose series, 48 h

Row | SMILES | TGI [µM] | GI50 [µM]
1 | CSc1ccc(/C=C2\CN(C)C/C(=C\c3ccc(SC)cc3)C2=O)cc1 | > 100 | –
2 | O=[N+]([O-])c1cnc(Sc2ccncn2)s1 | 3.69 | 1.98
3 | COC(=O)[C@@]12C3=NO[C@]1(C(=O)OC)C(O[Si](C)(C)C(C)(C)C)[C@H]1OC(C)(C)O[C@H]1[C@@H]2C(OCc1ccccc1)CC3 (some centres undefined) | > 100 | –
4 | O=C(O)c1cc(C(=O)O)cc(N2C(=O)c3ccccc3C2=O)c1 | > 100 | –
5 | COc1c2ccoc2c(/C=C/C=O)c2oc(-c3ccccc3)cc(=O)c12 | 9.17 | 2.73
6 | CN(CC(=O)O)S(=O)(=O)c1ccc2ccccc2c1 | > 100 | –
7 | CCN(CC)CC(C(=O)Nc1c(C)cccc1C)/C(C)=N\NC(=O)C[N+](C)(C)C (centres undefined) | > 100 | –
8 | CC1=C(C(=O)Nc2ccccc2C)C(c2ccco2)C(C(=O)Nc2ccccc2C)=C(C)N1C | > 100 | –
9 | CC(=O)OC(C)C(=O)C1c2cccc(O)c2C(=O)c2c(O)cc(C)cc21 (centres undefined) | 2.3 | –
10 | O=[S@@]1Nc2ccc(Br)cc2S1 | > 100 | –
11 | COc1ccc2c(c1)C1(C=N2)CCN(C(C)=O)CC1 | > 100 | –
12 | O=C1NC2(CCCCC2)C2CCCCC(O)C12 (centres undefined) | > 100 | –
13 | COc1ccc(-n2/c(=N/C(=S)N(C)C)ss/c2=N\C(=S)N(C)C)cc1 | > 100 | –
14 | CC1=C(C(=O)Nc2ccc(F)c(Cl)c2)C(c2ccc(Cl)cc2)NC(=O)N1 (centres undefined) | 32.6 | 16.5
15 | Oc1ccc(Cl)cc1-c1cc(-c2ccccc2Cl)[nH]n1 | > 100 | > 100
16 | CCOC(=O)C(Sc1ccccc1)c1c(OC)cc(=O)oc1/C=[N+](/[O-])c1ccc(N(C)C)cc1 (centres undefined) | 37 | –
17 | COc1ccccc1NC(=O)CC(=O)n1nc(C)c(N=Nc2ccccc2C(=O)O)c1C | > 100 | –
18 | CC(=O)N1[C@H](C(=O)O)CS[C@H]1c1ccncc1 | > 100 | –
19 | CC(=O)OC1COC(n2c(=S)n(-c3ccc(C)cc3)c(=O)c3ccccc32)C(OC(C)=O)C1OC(C)=O (centres undefined) | > 100 | –
20 | COc1cccc(NC(=O)CC(=O)n2nc(C)c(N=Nc3ccccc3)c2C)c1 | > 100 | –
21 | CC(=O)[O][Hg][c]1c(N)c(C)cc(C)c1F | 2.83 | 1.37
22 | CSc1ccccc1C#C/C=C\C#Cc1ccccc1N1CCCC1=O | > 50 | –
23 | O=C(O)CCSC(=O)Nc1cccc(F)c1 | > 100 | –
24 | O=C(CCl)N1c2ccccc2Oc2ccc3ccccc3c21 | 3.34 | 1.83
25 | CCNC1C2(CCCCC2)NC(=O)C12CCCCC2 (centres undefined) | > 100 | –

Tested on: MOLT-4 leukemia
Assay: NCI anticancer screen, dose series, 48 h

Row | SMILES | GI50 | TGI [µM]
26 | NC(CSC(c1ccccc1)(c1ccccc1)c1ccc2c(c1)OCO2)C(=O)O (centres undefined) | 0.631 µM | 17
27 | C=CCc1cc(OC)c2c(c1)C(O)CC(c1ccc(OC)c(OC)c1)O2 (centres undefined) | – | > 100
28 | O=C(NCCNc1nccc(-c2c(-c3cccc(O)c3)nc3sccn23)n1)c1ccccc1O | 4.87 µM | > 52.2
29 | CCCCCCCC(=O)SCC/C=C/[C@@H]1CC(=O)NCc2cccc(n2)C2=N[C@@](C)(CS2)C(=O)N[C@@H](C(C)C)C(=O)N1 | 1.01 µM | > 33.3
30 | C[C@@H](CS(C)(=O)=O)Nc1ncc2cc(Oc3ccc(F)cc3F)c(=O)n(C)c2n1 | > 25 µM | > 25
31 | CC(C)=CCCc1c(C)ccc2c1C(=O)C(=O)C(C(C)C)=C2 | – | 20
32 | COC(=O)[C@@H](C)C[C@H](Cc1ccc(F)cc1)NC(=O)c1csc([C@@H](C[C@H](C(C)C)N(C)C(=O)[C@@H](NC(=O)[C@H]2CCCCN2C)C(C)C)OC(C)=O)n1 | 0.00245 µM and 0.00876 µM | > 16.7
33 | N#CC(C#N)=c1ccc(=C2NCC3CCCN23)cc1 (centres undefined) | – | > 100
34 | Cc1cnc(NC(=O)C(Cc2ccccc2)NC(=O)c2ccccc2)s1 (centres undefined) | 24.1 µM | 95.4
35 | CCOC(=O)COc1cccc2c1C(=O)CCO2 | – | > 100
36 | CSc1ccc(/C=C2\CN(C)C/C(=C\c3ccc(SC)cc3)C2=O)cc1 | – | > 100
37 | O=[N+]([O-])c1cnc(Sc2ccncn2)s1 | 2 µM | 5.04
38 | COC(=O)[C@@]12C3=NO[C@]1(C(=O)OC)C(O[Si](C)(C)C(C)(C)C)[C@H]1OC(C)(C)O[C@H]1[C@@H]2C(OCc1ccccc1)CC3 (some centres undefined) | – | > 100
39 | COc1c2ccoc2c(/C=C/C=O)c2oc(-c3ccccc3)cc(=O)c12 | 2.06 µM | 5.24
40 | CN(CC(=O)O)S(=O)(=O)c1ccc2ccccc2c1 | – | > 100
41 | CCN(CC)CC(C(=O)Nc1c(C)cccc1C)/C(C)=N\NC(=O)C[N+](C)(C)C (centres undefined) | – | > 100
42 | CC1=C(C(=O)Nc2ccccc2C)C(c2ccco2)C(C(=O)Nc2ccccc2C)=C(C)N1C | – | > 100

Row | SMILES | GI50 | TGI [µM]
43 | CC(=O)OC(C)C(=O)C1c2cccc(O)c2C(=O)c2c(O)cc(C)cc21 (centres undefined) | – | 8.17
44 | O=[S@@]1Nc2ccc(Br)cc2S1 | – | > 100
45 | COc1ccc2c(c1)C1(C=N2)CCN(C(C)=O)CC1 | – | > 100
46 | O=C1NC2(CCCCC2)C2CCCCC(O)C12 (centres undefined) | – | > 100
47 | COc1ccc(-n2/c(=N/C(=S)N(C)C)ss/c2=N\C(=S)N(C)C)cc1 | – | > 100
48 | Oc1ccc(Cl)cc1-c1cc(-c2ccccc2Cl)[nH]n1 | 5.38 µM | > 100
49 | CCOC(=O)C(Sc1ccccc1)c1c(OC)cc(=O)oc1/C=[N+](/[O-])c1ccc(N(C)C)cc1 (centres undefined) | – | 37.9
50 | O=C(O)C(Cc1ccccc1)N1C(=O)N/C(=C\c2ccc(F)cc2)C1=O (centres undefined) | – | > 100
51 | COc1ccccc1NC(=O)CC(=O)n1nc(C)c(N=Nc2ccccc2C(=O)O)c1C | – | > 100
52 | CC(=O)N1[C@H](C(=O)O)CS[C@H]1c1ccncc1 | – | > 100
53 | CC(=O)OC1COC(n2c(=S)n(-c3ccc(C)cc3)c(=O)c3ccccc32)C(OC(C)=O)C1OC(C)=O (centres undefined) | – | > 100
54 | COc1cccc(NC(=O)CC(=O)n2nc(C)c(N=Nc3ccccc3)c2C)c1 | – | > 100
55 | CC(=O)[O][Hg][c]1c(N)c(C)cc(C)c1F | 1.22 µM | 7.12
56 | CSc1ccccc1C#C/C=C\C#Cc1ccccc1N1CCCC1=O | – | > 17.6
57 | O=C(O)CCSC(=O)Nc1cccc(F)c1 | – | > 100
58 | O=C(CCl)N1c2ccccc2Oc2ccc3ccccc3c21 | 0.339 µM | 1.95
59 | CCNC1C2(CCCCC2)NC(=O)C12CCCCC2 (centres undefined) | – | > 100

Tested on: SR leukemia
Assay: NCI anticancer screen, dose series, 48 h

Row | SMILES | GI50 | TGI [µM]
60 | NC(CSC(c1ccccc1)(c1ccccc1)c1ccc2c(c1)OCO2)C(=O)O (centres undefined) | 0.285 µM | 0.868
61 | C=CCc1cc(OC)c2c(c1)C(O)CC(c1ccc(OC)c(OC)c1)O2 (centres undefined) | – | > 100
62 | O=C(NCCNc1nccc(-c2c(-c3cccc(O)c3)nc3sccn23)n1)c1ccccc1O | 3.71 µM | > 56.7
63 | CCCCCCCC(=O)SCC/C=C/[C@@H]1CC(=O)NCc2cccc(n2)C2=N[C@@](C)(CS2)C(=O)N[C@@H](C(C)C)C(=O)N1 | 0.498 µM | > 33.3
64 | C[C@@H](CS(C)(=O)=O)Nc1ncc2cc(Oc3ccc(F)cc3F)c(=O)n(C)c2n1 | > 25 µM | > 25
65 | CC(C)=CCCc1c(C)ccc2c1C(=O)C(=O)C(C(C)C)=C2 | – | 14.9
66 | COC(=O)[C@@H](C)C[C@H](Cc1ccc(F)cc1)NC(=O)c1csc([C@@H](C[C@H](C(C)C)N(C)C(=O)[C@@H](NC(=O)[C@H]2CCCCN2C)C(C)C)OC(C)=O)n1 | 0.000437 µM and 0.00167 µM | > 16.7
67 | N#CC(C#N)=c1ccc(=C2NCC3CCCN23)cc1 (centres undefined) | – | > 100
68 | Cc1cnc(NC(=O)C(Cc2ccccc2)NC(=O)c2ccccc2)s1 (centres undefined) | 2.78 µM | 26.6
69 | CSc1ccc(/C=C2\CN(C)C/C(=C\c3ccc(SC)cc3)C2=O)cc1 | – | 41.4
70 | O=C(O)c1cc(C(=O)O)cc(N2C(=O)c3ccccc3C2=O)c1 | – | > 100
71 | CCN(CC)CC(C(=O)Nc1c(C)cccc1C)/C(C)=N\NC(=O)C[N+](C)(C)C (centres undefined) | – | > 100
72 | CC1=C(C(=O)Nc2ccccc2C)C(c2ccco2)C(C(=O)Nc2ccccc2C)=C(C)N1C | – | > 100
73 | O=[S@@]1Nc2ccc(Br)cc2S1 | – | > 100
74 | O=C1NC2(CCCCC2)C2CCCCC(O)C12 (centres undefined) | – | > 100
75 | COc1ccc(-n2/c(=N/C(=S)N(C)C)ss/c2=N\C(=S)N(C)C)cc1 | – | > 100
76 | Oc1ccc(Cl)cc1-c1cc(-c2ccccc2Cl)[nH]n1 | 4.12 µM | > 100
77 | CNC(=O)c1cc(Oc2ccc3nc(NC(=O)Nc4ccc(Cl)c(C(F)(F)F)c4)sc3c2)ccn1 | 0.412 µM | 9.1
78 | O=C(O)C(Cc1ccccc1)N1C(=O)N/C(=C\c2ccc(F)cc2)C1=O (centres undefined) | – | > 100
79 | CC(=O)N1[C@H](C(=O)O)CS[C@H]1c1ccncc1 | – | > 100
80 | COc1cccc(NC(=O)CC(=O)n2nc(C)c(N=Nc3ccccc3)c2C)c1 | – | > 100
81 | CC(=O)[O][Hg][c]1c(N)c(C)cc(C)c1F | 0.338 µM | –
82 | O=C(O)CCSC(=O)Nc1cccc(F)c1 | – | > 100
83 | O=C(CCl)N1c2ccccc2Oc2ccc3ccccc3c21 | 0.305 µM | 1.06
